Common to all, as to format: in vivo
One assay relates to Spodoptera littoralis. As to the kind of experiment: Spodoptera littoralis (Egyptian cotton leaf worm) cotton leaf disc spray test, L1 larvae. Particulars: foliar, 72 h, read-out: control (at least one of mortality, anti-feedant effect, and growth inhibition). The procedure:
Spodoptera littoralis (Egyptian Cotton Leaf Worm)
Cotton leaf discs were placed on agar in 24-well microtiter plates and sprayed with aqueous test solutions prepared from 10,000 ppm DMSO stock solutions. After drying, the leaf discs were infested with five L1 larvae. The samples were assessed for mortality, anti-feedant effect, and growth inhibition in comparison to untreated samples 3 days after infestation. Control of Spodoptera littoralis by a test sample is when at least one of mortality, anti-feedant effect, and growth inhibition is higher than the untreated sample.

The subject of the next assay is Plutella xylostella. The assay is described as follows: Plutella xylostella (diamond back moth) artificial diet test, L2 larvae. Particulars: 120 h, read-out: effect in at least one of the two categories (mortality or growth inhibition); for percent effect (mortality or growth inhibition) at 200 ppm: application rate of 200 ppm, 5 days after infestation, in comparison to untreated samples. The procedure:
Plutella xylostella (Diamond Back Moth)
24-well microtiter plates with artificial diet were treated with aqueous test solutions prepared from 10,000 ppm DMSO stock solutions by pipetting. After drying, the plates were infested with L2 larvae (10 to 15 per well). The samples were assessed for mortality and growth inhibition in comparison to untreated samples 5 days after infestation.

Another assay relates to Diabrotica balteata. As to the kind of experiment: Diabrotica balteata (corn root worm) maize sprout spray test, L2 larvae. Particulars: 96 h, read-out: effect in at least one of the two categories (mortality or growth inhibition); for percent effect (mortality or growth inhibition) at 200 ppm: application rate of 200 ppm, 4 days after infestation, in comparison to untreated samples. The procedure:
Diabrotica balteata (Corn Root Worm)
Maize sprouts, placed on an agar layer in 24-well microtiter plates were treated with aqueous test solutions prepared from 10,000 ppm DMSO stock solutions by spraying. After drying, the plates were infested with L2 larvae (6 to 10 per well). The samples were assessed for mortality and growth inhibition in comparison to untreated samples 4 days after infestation.

The mark [1] stands for this setting: application rate of 200 ppm, 3 days after infestation, in comparison to untreated samples.

Read-outs that look alike come from different tables or passages of the source. Some results are limits rather than exact numbers.

One may read the mortality as the percentage killed. On to `Cc1cccc(C)c1NC(=O)N/N=C/c1ccc(O/N=C2\CCc3cc(OC(F)(F)F)ccc32)cc1` [Compound 1, 1-(2,6-dimethylphenyl)-3-[[4-[[5-(trifluoromethoxy)indan-1-ylidene]amino]oxyphenyl]methylene-amino]urea], for which the mortality at 200 ppm in the assay with Spodoptera littoralis (setting [1]) was not below 80%. In addition, the percent effect (mortality or growth inhibition) at 200 ppm with Plutella xylostella and in the assay on Diabrotica balteata was not below 80% throughout.
As to `C/C(=N\Oc1ccc(/C=N/OC(=O)Nc2c(C)cccc2C)cc1)c1ccc(OC(F)(F)F)cc1` [Compound 2, [[4-[1-[4-(trifluoromethoxy)phenyl]ethylidene-amino]oxyphenyl]methyleneamino] N-(2,6-dimethylphenyl) carbamate], the mortality at 200 ppm in the assay on Spodoptera littoralis is not below 80%. Moreover, the percent control (mortality or growth inhibition) at 200 ppm in the assay with Plutella xylostella and with Diabrotica balteata was not below 80% throughout.
Consider `C/C(=N\Nc1ccc(/C=N/NC(=S)Nc2c(C)cccc2C)cc1)c1ccc(OC(F)(F)F)cc1` [Compound 3, 1-(2,6-dimethylphenyl)-3-[[4-[2-[1-[4-(trifluoromethoxy)phenyl]ethylidene] hydrazino]phenyl]methyleneamino] thiourea], for which the mortality at 200 ppm with Spodoptera littoralis (setting [1]) was not below 80%. Besides, the percent effect (mortality or growth inhibition) at 200 ppm in the assay with Plutella xylostella and in the assay on Diabrotica balteata was not below 80% each time.
In the case of `CC(C)c1ccccc1NC(=O)N/N=C/c1ccc(O/N=C2\CCc3cc(OC(F)(F)F)ccc32)cc1` [Compound 4, 1-(2-isopropylphenyl)-3-[[4-[[5-(trifluoromethoxy)indan-1-ylidene]amino]oxyphenyl]methylene-amino]urea], the mortality at 200 ppm in the assay with Spodoptera littoralis (setting [1]) was not below 80%. Moreover, the percent effect (mortality or growth inhibition) at 200 ppm in the assay on Plutella xylostella and with Diabrotica balteata was not below 80% throughout.
Turning to `CC(C)c1ccccc1NC(=S)N/N=C/c1ccc(O/N=C2\CCc3cc(OC(F)(F)F)ccc32)cc1` [Compound 5, 1-(2-isopropylphenyl)-3-[[4-[[5-(trifluoromethoxy)indan-1-ylidene]amino]oxyphenyl]methylene-amino]thiourea], the mortality at 200 ppm in the assay on Spodoptera littoralis (setting [1]) was not below 80%. In addition, the percent effect (mortality or growth inhibition) at 200 ppm in the assay with Plutella xylostella and with Diabrotica balteata was not below 80% each time.
For `C/C(=N\Oc1ccc(/C=N/NC(=O)Nc2ccccc2C(C)C)cc1)c1ccc(OC(F)(F)F)cc1` [Compound 6, 1-(2-isopropylphenyl)-3-[[4-[1-[4-(trifluoromethoxy)phenyl]ethylidene-amino]oxyphenyl]methylene-amino]urea], the percent effect (mortality or growth inhibition) at 200 ppm in the assay on Plutella xylostella and with Diabrotica balteata was not below 80% each time.
For `C/C(=N\Oc1ccc(/C=N/NC(=O)Nc2c(C)cccc2C)cc1)c1ccc(OC(F)(F)F)cc1` [Compound 7, 1-(2,6-dimethylphenyl)-3-[[4-[1-[4-(trifluoromethoxy)phenyl]ethylidene-amino]oxyphenyl]methylene-amino]urea], the mortality at 200 ppm with Spodoptera littoralis (setting [1]) was not below 80%. Further, the percent effect (mortality or growth inhibition) at 200 ppm with Plutella xylostella and in the assay on Diabrotica balteata was not below 80% each time.
Consider `C/C(=N\Oc1ccc(/C=N/NC(=S)Nc2ccccc2C(C)C)cc1)c1ccc(OC(F)(F)F)cc1` [Compound 8, 1-(2-isopropylphenyl)-3-[[4-[1-[4-(trifluoromethoxy)phenyl]ethylidene-amino]oxyphenyl]methylene-amino]thiourea], for which the percent effect (mortality or growth inhibition) at 200 ppm in the assay with Plutella xylostella and with Diabrotica balteata was not below 80% in each case.
Take `Cc1cccc(C)c1NC(=S)N/N=C/c1ccc(O/N=C2\CCc3cc(OC(F)(F)F)ccc32)cc1` [Compound 9, 1-(2,6-dimethylphenyl)-3-[[4-[[5-(trifluoromethoxy)indan-1-ylidene]amino]oxyphenyl]methylene-amino]thiourea]: the mortality at 200 ppm with Spodoptera littoralis (setting [1]) was not below 80%. For the same compound, the percent effect (mortality or growth inhibition) at 200 ppm in the assay on Plutella xylostella and with Diabrotica balteata was not below 80% in each case.
As for `C/C(=N\Oc1ccc(/C=N/NC(=S)Nc2c(C)cccc2C)cc1)c1ccc(OC(F)(F)F)cc1` [Compound 10, 1-(2,6-dimethylphenyl)-3-[[4-[1-[4-(trifluoromethoxy)phenyl]ethylidene-amino]oxyphenyl]methylene-amino]thiourea], the mortality at 200 ppm with Spodoptera littoralis (setting [1]) is not below 80%. The percent effect (mortality or growth inhibition) at 200 ppm with Plutella xylostella and in the assay with Diabrotica balteata was not below 80% throughout.
As for `C/C(=N\Nc1ccc(/C=N/OC(=O)Nc2c(C)cccc2C)cc1)c1ccc(C(F)(F)F)cc1` [Compound 12, [[4-[2-[1-[4-(trifluoromethyl)phenyl]ethylidene] hydrazino]phenyl]methyleneamino] N-(2,6-dimethylphenyl)carbamate], in the assay with Diabrotica balteata, the percent control (mortality or growth inhibition) at 200 ppm was not below 80%.
On to `C/C(=N\Nc1ccc(/C=N/NC(=O)Nc2ccccc2C(C)C)cc1)c1cccc(OC(F)(F)F)c1` [Compound 13, 1-(2-isopropylphenyl)-3-[[4-[2-[1-[3-(trifluoromethoxy)phenyl]ethylidene] hydrazino]phenyl]methyleneamino] urea], for which the percent effect (mortality or growth inhibition) at 200 ppm in the assay on Diabrotica balteata is not below 80%.
On to `C/C(=N\Nc1ccc(/C=N/NC(=S)Nc2ccccc2C(C)C)cc1)c1cccc(OC(F)(F)F)c1` [Compound 14, 1-(2-isopropylphenyl)-3-[[4-[2-[1-[3-(trifluoromethoxy)phenyl]ethylidene] hydrazino]phenyl]methyleneamino] thiourea], for which the percent effect (mortality or growth inhibition) at 200 ppm with Plutella xylostella and with Diabrotica balteata was not below 80% in each case.
On to `C/C(=N\Nc1ccc(/C=N/NC(=O)Nc2c(C)cccc2C)cc1)c1cccc(OC(F)(F)F)c1` [Compound 15, 1-(2,6-dimethylphenyl)-3-[[4-[2-[1-[3-(trifluoromethoxy)phenyl]ethylidene]hydrazino]phenyl]methylene-amino]urea], for which the percent effect (mortality or growth inhibition) at 200 ppm in the assay with Plutella xylostella was not below 80%.
Consider `C/C(=N\Nc1ccc(/C=N/NC(=S)Nc2c(C)cccc2C)cc1)c1cccc(OC(F)(F)F)c1` [Compound 16, 1-(2,6-dimethylphenyl)-3-[[4-[2-[1-[3-(trifluoromethoxy)phenyl]ethylidene] hydrazino]phenyl]methylene-amino]thiourea], for which the percent effect (mortality or growth inhibition) at 200 ppm in the assay with Plutella xylostella and in the assay with Diabrotica balteata was not below 80% each time.
Take `C/C(=N\Nc1ccc(/C=N/NC(=S)Nc2c(C)cccc2C)cc1)c1ccccc1OC(F)(F)F` [Compound 18, 1-(2,6-dimethylphenyl)-3-[[4-[2-[1-[2-(trifluoromethoxy)phenyl]ethylidene] hydrazino]phenyl]methylene-amino]thiourea]: the percent effect (mortality or growth inhibition) at 200 ppm with Plutella xylostella was not below 80%.
Regarding `C/C(=N\Nc1ccc(/C=N/NC(=O)Nc2ccccc2C(C)C)cc1)c1ccc(C(F)(F)F)cc1` [Compound 19, 1-(2-isopropylphenyl)-3-[(E)-[4-[(2E)-2-[1-[4-(trifluoromethyl)phenyl]ethylidene] hydrazino]phenyl]methyleneamino] urea], the percent effect (mortality or growth inhibition) at 200 ppm in the assay with Plutella xylostella and in the assay with Diabrotica balteata was not below 80% throughout.
On to `C/C(=N\Nc1ccc(/C=N/NC(=S)Nc2ccccc2C(C)C)cc1)c1ccccc1OC(F)(F)F` [Compound 23, 1-(2-isopropylphenyl)-3-[(E)-[4-[(2E)-2-[1-[2-(trifluoromethoxy)phenyl]ethylidene] hydrazino]phenyl]methylene-amino]thiourea], for which the percent effect (mortality or growth inhibition) at 200 ppm in the assay on Plutella xylostella was not below 80%.
Regarding `CC/C(=N\Nc1ccc(/C=N/NC(=O)Nc2ccccc2C(C)C)cc1)c1ccc(C(F)(F)F)cc1` [Compound 25, 1-(2-isopropylphenyl)-3-[(E)-[4-[(2E)-2-[1-[4-(trifluoromethyl)phenyl]propylidene] hydrazino]phenyl]methyleneamino] urea], the percent effect (mortality or growth inhibition) at 200 ppm in the assay on Plutella xylostella and with Diabrotica balteata was not below 80% throughout.
On to `C/C(=N\Nc1ccc(/C=N/NC(=O)Nc2c(C)cccc2C)cc1)c1ccc(OC(F)F)cc1` [Compound 29, 1-[[4-[2-[1-[4-(difluoromethoxy)phenyl]ethylidene] hydrazino]phenyl]methyleneamino]-3-(2,6-dimethylphenyl)urea], for which the mortality at 200 ppm with Spodoptera littoralis (setting [1]) was not below 80%. In addition, the percent effect (mortality or growth inhibition) at 200 ppm in the assay with Plutella xylostella is not below 80%.
For the compound `FC(F)(F)Oc1ccc2c(c1)CC/C2=N\Oc1ccc(/C=N/NC(=S)Nc2ccccc2C(F)(F)F)cc1` [Compound 30, 1-[[4-[[5-(trifluoromethoxy)indan-1-ylidene]amino]oxyphenyl]methylene-amino]-3-[2-(trifluoromethyl)phenyl]thiourea], in the assay with Diabrotica balteata, the percent effect (mortality or growth inhibition) at 200 ppm is not below 80%.
As to `C/C(=N\Oc1ccc(/C=N/NC(=S)Nc2ccccc2C(F)(F)F)cc1)c1ccc(OC(F)(F)F)cc1` [Compound 31, 1-[[4-[1-[4-(trifluoromethoxy)phenyl]ethylidene-amino]oxyphenyl]methylene-amino]-3-[2-(trifluoromethyl)phenyl]thiourea], the percent effect (mortality or growth inhibition) at 200 ppm in the assay with Diabrotica balteata was not below 80%.
